Measured values as given in patent US20260015322A1, “DELIVERY OF THERAPEUTIC ALKALOID COMPOUNDS” (priority 2022, published 2026).
Read-outs that look alike come from different tables or passages of the source.

How the values were obtained:
[1] = Hydrolysis Assay - Condition 2 (DI Water); type: physicochemical; details: 25° C., 0.5 mM
Procedure: 50 uL of compound (10 mM) in DMSO was diluted into 950 uL of DI water to a final concentration of 0.5 mM. The hydrolysis kinetics were conducted at 25° C. and measured by LCMS at a certain time interval.
(§1) The corresponding LCMS chromatogram were recorded and the conversions were calculated by integration of each peak.
(§2) • 1) LCMS spectra were obtained using Agilent 1200G1956A or SHIMADZU LCMS-2020. • Standard LCMS conditions were as follows (running time 1.55 minutes): • Acidic condition: Mobile Phase A: 0.0375% TFA in water (v/v). Mobile Phase B: 0.01875% TFA in acetonitrile (v/v); Column: Kinetex EVO C18 30*2.1 mm, 5 μm. • Basic condition: Mobile Phase A: 0.025% NH3·H2O in water (v/v). Mobile Phase B: Acetonitrile; Column: Kinetex EVO C18 2.1×30 mm, 5 μm. • 2) Conversion (%)=peak area 1/(peak area 1+peak area 2)*100%, peak area 1 is the integration of hydrolyzed product, peak area 2 is the integration of starting material.

[2] = in vivo; type: in vivo, male C57BL/6 mice; details: 321 IV 2 mg/kg, mice
Procedure: Total fifteen male mice were used in this study with n=3 mice/time point with sparse sampling study design. Animals were administered through intravenous route with solution formulation of 321 at 2 mg/kg dose.
The extraction procedure for plasma/brain samples and the spiked plasma/brain calibration standards were identical (PMSF Stabilized Plasma and Brain used for Preparation of calibration standards): A 20 μL of study sample plasma/brain or spiked plasma/brain calibration standard was added to individual pre-labeled micro-centrifuge tubes followed by 200 μL of internal standard prepared in acetonitrile (Rosuvastatin, 50 ng/mL) was added except for blank, where 200 μL of acetonitrile was added. Samples were vortexed for 5 minutes. Samples were centrifuged for 10 minutes at a speed of 4000 rpm at 4° C. Following centrifugation, 200 μL of clear supernatant was transferred in 96 well plates and analyzed using LC-MS/MS.
Brain samples were diluted (1-part of tissue: 2-part of buffer) and homogenized. The homogenate was submitted for bioanalysis and the concentrations (ng/mL) received were corrected with dilution factor (3×) and the final reported concentrations were represented in ng/g.
The plasma and brain concentration-time data of 321 and 001 were used for the pharmacokinetic analysis.

[3] = Plasma Stability Assay (Example A3), human plasma; type: in vitro ADME; details: 10 μM, 37° C., prodrug remaining
From the text: (§3) The data is represented in the table below.

[4] = Plasma Stability Assay (Example A2), mouse plasma; type: in vitro ADME; details: Mouse Plasma, 37° C., prodrug remaining
Procedure: (§4) Each test was carried out in duplicate for each time point; 0 min, 15 min, 30 min, 60 min, 120, 240 min. […]

[5] = Hydrolysis Assay - Condition 1 (SGF); type: physicochemical; details: Condition 1: SGF with pepsin pH 1.5, 37° C., 0.5 mM
Procedure: 50 uL of compound (10 mM) in DMSO was diluted into 950 uL of Simulated Gastric Fluid (SGF) with pepsin (pH 1.5) to a final concentration of 0.5 mM. The hydrolysis kinetics were conducted at 37° C. and measured by LCMS at a certain time interval.
as §1, §2

[6] = Plasma Stability Assay (Example A2), human plasma; type: in vitro ADME; details: 37° C., prodrug remaining
Procedure: as §4

[7] = Metabolic Stability in Human Hepatocytes; type: in vitro ADME; details: cryopreserved human hepatocytes, 5×10^5 viable cells/mL, 37° C.
Procedure: A 2.5 uL aliquot of 100 μM test compound was incubated with 247.5 uL of cryopreserved hepatocytes suspended in serum-free incubation medium at 5×10^5 viable cells/mL. The mixture was incubated at 37° C. and shaken at 500 rpm for the designated time points (0.5, 15, 30, 60, 90, or 120 min). At each time point, 25 μL aliquot of incubation mixture was transferred to 125 μL of cold acetonitrile containing internal standard, followed by centrifugation for 30 min at 3,220 g. 100 μL of supernatant was mixed with 100 μL of distilled water for analysis by LC-MS/MS. Peak areas were determined from extracted ion chromatograms and in vitro half-life (t1/2) was determined from the concentration vs time regression slope, in vitro t1/2=0.693/k. Conversion of the in vitro t1/2 (in min) into the in vitro intrinsic clearance (in vitro CLint, in μL/min/10^6 cells) is done using: in vitro CLint=kV/N.

[8] = Plasma Stability Assay (Example A3), rat plasma; type: in vitro ADME; details: 10 μM, 37° C., prodrug remaining
From the text: as §3

[9] = male, C57BL/6, mouse, in vivo, 321, read-out: Brain concentrations (mean)
[10] = male, C57BL/6, mouse, in vivo, 321, read-out: Plasma concentrations (mean)

Which results are given for `COc1ccc([C@@]23CCC(OP(=O)(OC(C)C)OC(C)C)=C[C@@H]2N(C)CC3)cc1OC` [Compound 321, [(3aS,7aS)-3a-(3,4-dimethoxyphenyl)-1-methyl-3,4,5,7a-tetrahydro-2H-indol-6-yl]diisopropyl phosphate]?
Conversion (%) ([1]; 1 min): 0%; Conversion (%) ([1]; 5 min): 0%; Conversion (%) ([1]; 30 min): 0%; Conversion (%) ([1]; 1 h): 0%; Conversion (%) ([1]; 4 h): 0%; Conversion (%) ([1]; 24 h): 0%; Brain-Kp [2]; 321: 0.28; brain concentrations quantifiable up to [2]; 321: ≤ 0.5 h; plasma concentrations quantifiable up to [2]; 321: up to 2 h; T1/2 ([2]; 321 in Brain): 6.6 min; Vss ([2]; 321 in Brain): 10.34 L/kg; CL ([2]; 321 in Brain, marked NR (not reportable)): NR (1154.07) mL/min/kg; AUClast ([2]; 321 in Plasma): 97.14 ng·h/mL; C0 (back extrapolated concentration) ([2]; 321 in Plasma): 503.64 ng/mL; CL ([2]; 321 in Plasma): 340.73 mL/min/kg; T1/2 ([2]; 321 in Plasma): 21.6 min; Vss ([2]; 321 in Plasma): 4.80 L/kg; concentration at 0.08 h [2, 9]: 99.6 ng/g; concentration at 0.08 h [2, 10]: 305 ng/mL; concentration at 0.25 h [2, 9]: 37.1 ng/g; concentration at 0.25 h [2, 10]: 105 ng/mL; concentration at 0.5 h [2, 9]: 7.89 ng/g; concentration at 0.5 h [2, 10]: 26.2 ng/mL; concentration at 1 h ([2]; male, C57BL/6, mouse, in vivo, 321, 1 h, read-out: Plasma concentrations (mean)): 8.57 ng/mL; concentration at 2 h ([2]; male, C57BL/6, mouse, in vivo, 321, 2 h, average of two values, read-out: Plasma concentrations (mean)): 1.38 ng/mL; Prodrug (%) ([3]; 0 min): 100.0%; Prodrug (%) ([3]; 10 min): >99%; Prodrug (%) ([3]; 30 min): >99%; Prodrug (%) ([3]; 60 min): 98.1%; Prodrug (%) ([3]; 120 min): 94.5%; Prodrug (%) ([3]; 240 min): 96.3%; Prodrug (%) ([4]; 0 min): 100%; Prodrug (%) ([4]; 15 min): 77.3%; Prodrug (%) ([4]; 30 min): 74.5%; Prodrug (%) ([4]; 60 min): 58.4%; Prodrug (%) ([4]; 120 min): 43.1%; Prodrug (%) ([4]; 240 min): 31.7%; Conversion (%) ([5]; 1 min): 0%; Conversion (%) ([5]; 5 min): 0%; Conversion (%) ([5]; 30 min): 0%; Conversion (%) ([5]; 1 h): 0%; Conversion (%) ([5]; 4 h): 0%; Conversion (%) ([5]; 24 h): 0%; Prodrug (%) ([6]; 0 min): 100%; Prodrug (%) ([6]; 15 min): >99%; Prodrug (%) ([6]; 30 min): >99%; Prodrug (%) ([6]; 60 min): >99%; Prodrug (%) ([6]; 120 min): >99%; Prodrug (%) ([6]; 240 min): 78.2%; t1/2 [7]: 23 min; Prodrug (%) ([8]; 0 min): 100.0%; Prodrug (%) ([8]; 10 min): 74.0%; Prodrug (%) ([8]; 30 min): 69.8%; Prodrug (%) ([8]; 60 min): 69.2%; Prodrug (%) ([8]; 120 min): 68.4%; Prodrug (%) ([8]; 240 min): 65.7%
